“Also recorded” adds a separate entry of the source.
Legend:
[1] = test system: Normal Cell Line CRL 1790
Description: (§1) Cell culture: Three cell lines derived from colon, CRL 1790, a normal cell line, HT 29, a colorectal cancer cell line and CRL 2158 a multidrug resistant colorectal cancer cell line (ATCC) were used to evaluate the cytotoxicity of nanocomplexes. Cells were cultured in media specifically recommended for each cell line. For HT 29, the medium used was DMEM (Dulbecco's modified Eagle's medium, Sigma), for CRL 2158, the medium used was RPMI, and for CRL 1790, the medium used was EMEM (Eagle's minimum essential medium; Cedarlane Labs, Burlington, ON, Canada). All the media were supplemented with FBS, Penicillin/streptomycin, and L-glutamine. At confluency (˜80%), cells were washed with 1×PBS twice. Cells were incubated with trypsin-EDTA for 5 minutes and then diluted in respective media supplemented with 10% FBS before staining with trypan blue (50 ul of cells and 450 ul of trypan blue) and counting viable cells to evaluate cytotoxicity. The cytotoxicity was determined by trypan blue exclusion by living cells and blue staining of dead cells. The number of dead cells in a unit area was counted and expressed as a percentage of total cells in the area. […]

[2] = test system: Colorectal MDR cell line CRL 2158
Description: as §1

[3] = DPPH radical scavenging capacity of food powder; type: biochemical; conditions: positive control at same concentrations as polyphenols
[4] = test system: CRL 1790 cells; assay: Calcein uptake by confocal microscopy; type: cell-based, human
Description: (§2) Calcein uptake into HT 29, CRL 1790 cells: Uptake of calcein-loaded nanoparticles into mammalian cells. Calcein by itself is impermeable through membrane, and may be taken up at a low level by endocytosis. Ethanol-bleached cherry was homogenized in water, also containing 1 mg/g fresh weight equivalent of calcein, and the supernatant dialyzed against water. Calcein complexed to nanofilaments is retained within the dialysis bag, and used for uptake measurements by confocal microscopy.
(§3) Studies were also performed to investigate use of nanofibres as delivery vehicles for a cargo of interest, where the cargo was non-covalently complexed with the nanofibres. In this study, nanofibres were used for cellular delivery of calcein. […]
(§4) Uptake of complexed molecules by nanofibres: Nanofibres are extremely long (micrometers in length, ˜5 nm in diameter; see FIG. 37, for example), and their ability to cross the plasma membrane was investigated. […] HT-29 and CRL-1790 cells were incubated in the presence of calcein alone, and calcein-complexed nanofibres (of equal fluorescence intensity). Uptake of calcein and calcein complexed with nanofibres were monitored by confocal microscopy. […] Similar experiments were also conducted with nanoparticles, however, because of quenching of fluorescence by polyphenols, successful acquisition of images was not achieved.

[5] = test system: HT 29 cells; assay: Calcein uptake by confocal microscopy; type: cell-based, human
Description: as §2, §3, §4

Question: Which results are given for `CC(=O)O[C@H]1C(=O)[C@@]2(C)[C@H]([C@H](OC(=O)c3ccccc3)[C@]3(O)C[C@H](OC(=O)[C@H](O)[C@@H](NC(=O)c4ccccc4)c4ccccc4)C(C)=C1C3(C)C)[C@]1(OC(C)=O)CO[C@@H]1C[C@@H]2O` [Paclitaxel, paclitaxel]?
Answer: cytotoxicity (in words) [1]: low level of cytotoxicity; cytotoxicity (in words) [2]: low level of cytotoxicity

Question: Which TEAC value [3] does the source give for `Cc1c(C)c2c(c(C)c1O)CCC(C)(C(=O)O)O2` (centres unmarked) [Trolox] here?
Answer: 1

Question: With `O=C(O)CN(CC(=O)O)Cc1cc2c(cc1O)Oc1cc(O)c(CN(CC(=O)O)CC(=O)O)cc1C21OC(=O)c2ccccc21` [calcein] as the compound, how does the “uptake of calcein into cells” value [4] read?
Answer: comparatively very low

Question: What about the “uptake of calcein into cells” value [5] of the same compound?
Answer: comparatively very low; also recorded: Far reduced uptake

From US12409148B2, “Plant tissue-derived nanoparticles and food powders” (PSIGRYPH INC., priority 2018, dated 2025)
